Residues, ends and D or L forms follow the SMILES beside them. *: point of attachment. Cbz = O=C(OCc1ccccc1)*; CH2F = FC*
Legend:
[1] = system: 320DM human colon cancer cells; assay: DNA synthesis by [3H]-thymidine incorporation, 320DM cells; format: cell-based; settings: for effect on DNA synthesis / growth: 30 to 3000 nM
Experimental: (§1) Cells were cultured in MEM supplemented with 10% FCS and antibiotics. Cells were grown to subconfluence and then treated with various hormones or agents as described by Somjen et al. (Somjen et al., 1998). The cells were characterized in terms of expression of mRNAs for estrogen […] by real time PCR, and the results are summarized in Table 1. N87, 320DM and H295R cells expressed mRNAs for both ERs. The ratio of ERα to ERβ was 1:8.5, 1:30 and 1:1.8 in N87, 320DM and H295R cells, respectively. Ovarian A2780 and prostate C4-24 cells expressed mainly mRNA for ERβ, and the ratio of ERβ to ERα was 300:1 and 70:1, respectively. MLS ovarian cells expressed mRNA only for ERβ. The ratio of ERα to ERβ in T47D cells has been reported to be 9:1.
[^3H]-Thymidine incorporation into DNA was used for the assessment of the various effects (proliferative or inhibitory) of various isoflavones, isoflavone derivatives and known cytotoxic drugs in the above-mentioned cells. Cells were grown until subconfluence using conditions described in Somjen et al. […] At the end of incubation, [^3H]-thymidine was added for two hours. Cells were then treated with 10% ice-cold trichloroacetic (TCA) for 5 min and washed twice with 5% TCA and then with cold ethanol. The cellular layer was dissolved in 0.3 ml of 0.3 M NaOH, aliquots were taken for counting radioactivity, and [^3H]-thymidine incorporation into DNA was calculated.

[2] = system: H295R adrenocarcinoma cells; assay: DNA synthesis by [3H]-thymidine incorporation, H295R cells; format: cell-based, human; parameters: stimulation of DNA synthesis: concentration or dose not given beside the values; settings: for inhibition at 3 µM: Homo sapiens, NCI-H295R, read-out: inhibition of DNA synthesis / growth
Experimental: as §1
(§2) [^3H]-Thymidine incorporation into DNA was used for the assessment of the various effects (proliferative or inhibitory) of various isoflavones, isoflavone derivatives and known cytotoxic drugs in the above-mentioned cells. Cells were grown until subconfluence using conditions described in Somjen et al. (Somjen et al., 1998) and then treated with various agents for 24 or 48 h as indicated. At the end of incubation, [^3H]-thymidine was added for two hours. Cells were then treated with 10% ice-cold trichloroacetic (TCA) for 5 min and washed twice with 5% TCA and then with cold ethanol. The cellular layer was dissolved in 0.3 ml of 0.3 M NaOH, aliquots were taken for counting radioactivity, and [^3H]-thymidine incorporation into DNA was calculated.

[3] = system: human prostate C4-2B cancer cells; assay: DNA synthesis by [3H]-thymidine incorporation, C4-2B cells; format: cell-based
Experimental: as §1, §2

[4] = system: Human umbilical vascular smooth muscle cells (VSMC); assay: DNA synthesis by [3H]-thymidine incorporation, normal VSMC; format: cell-based; settings: for effect on DNA synthesis: at 300 nM
Experimental: Human umbilical vascular smooth muscle cells (VSMC) sensitive to estrogen, were grown in culture as described above, and used only at passages 1-3, when expression of smooth muscle actin was clearly demonstrable (Somjen et al. 2000). The ratio of the expression of mRNA for ERα to ERβ was 2.7:1.
as §2

[5] = system: N87 gastric carcinoma cells; assay: DNA synthesis by [3H]-thymidine incorporation, N87 cells; format: cell-based, human
Experimental: as §1, §2

[6] = system: T47D mammary cancer cells; assay: DNA synthesis by [3H]-thymidine incorporation, T47D cells; format: cell-based, human; settings: at 10 μM
Experimental: as §1, §2

[7] = system: A2780 ovarian cancer cells; assay: DNA synthesis by [3H]-thymidine incorporation, A2780 cells; format: cell-based, human; settings: for inhibition at 25 µM: read-out: inhibition of cell proliferation
Experimental: as §1, §2

ERβ compared to ERα = settings: transfected cells; cited from earlier work
MLS ovarian cancer cells = assay: DNA synthesis by [3H]-thymidine incorporation, MLS cells; format: cell-based, human
Experimental: as §1, §2

MLS ovarian xenografts = MLS ovarian xenografts in nude mice; format: in vivo; settings: daunomycin iv 200 μg/mouse every other day
Source text: Female CD1 nude mice (8-week old, ˜30 g) were housed and handled with free access to food and water in the animal facility according to the guidelines (1996) of the Institutional Animal Care and Use Committee of the Weizmann Institute of Science, Rehovot, Israel.
Thirty female nude mice (8 weeks old) were inoculated sub-cutaneously (sc) with MLS ovarian carcinoma cells (1.5×10^6/mouse). Ten days later, when the tumors were palpable, the mice were randomly divided into 3 groups (8-10 mice/group). The mice in each group were iv injected every other day either with a vehicle (Neowater, a solubilization enhancer, 0.1 ml), daunomycin dissolved in Neowater (200 μg/mouse in 0.1 ml vehicle, total dose during treatment 1 mg/mouse), or compound 9 dissolved in Neowater (400 μg/mouse in 0.1 ml vehicle, total dose during treatment 2 mg/mouse). During treatment, body weight was recorded to monitor toxicity of the treatment, and the tumors were measured with an external caliper. Tumor volume was calculated using the formula length×width×height×π/6. Statistical significance was assessed using student's t test, and differences were considered significant at p<0.05.

[8] = ICI 182780 (1.1 μM) + E2 0.3 μM
[9] = estradiol 30 nM + 1.1 μM ICI 182780
[10] = apoptosis inhibitor at 25 μM alone

COc1ccc(-c2coc3cc(O)cc(O)c3c2=O)cc1 [Compound 1, Biochanin A, reference compound]
effect on DNA synthesis / growth [1]: had no effect on growth | effect on DNA synthesis ([2]; at 3 μM): had no effect on DNA synthesis | effect on DNA synthesis ([3]; at 3 μM): stimulated DNA synthesis significantly | effect on DNA synthesis [4]: stimulated DNA synthesis | effect on DNA synthesis ([5]; at 3 μM): had no effect | effect on DNA synthesis [6]: stimulated DNA synthesis

O=c1c(-c2ccc(O)cc2)coc2cc(O)cc(O)c12 [Compound 2, Genistein, reference compound]
effect on [3H]-thymidine incorporation into DNA ([1]; 30 to 300 nM): significantly stimulated [^3H]-thymidine incorporation into DNA | inhibition at 25 µM ([7]; Homo sapiens): 30 to 40% | effect on DNA synthesis ([3]; at 3 μM): stimulated DNA synthesis significantly | sensitivity for activating transcription via ERβ compared to ERα (ERβ compared to ERα): 100 fold

O=c1c(-c2ccc(O)cc2)coc2cc(O)ccc12 [Compound 3, Daidzein, reference compound]
inhibition at 25 µM ([7]; Homo sapiens): 30 to 40% | effect on DNA synthesis ([3]; at 3 μM): stimulated DNA synthesis significantly | effect on DNA synthesis [4]: stimulated DNA synthesis | effect on DNA synthesis [6]: stimulated DNA synthesis | sensitivity for activating transcription via ERβ compared to ERα (ERβ compared to ERα): 100 fold

COc1ccc(-c2c(CCCC(=O)O)oc3cc(O)cc(O)c3c2=O)cc1 [Compound 4, 2-(3-carboxypropyl)-7,5-dihydroxy-4′-methoxyisoflavone]
effect on DNA synthesis / growth [1]: stimulated the DNA synthesis | stimulation of DNA synthesis ([2]; concentration not given): 273% | effect on DNA synthesis ([3]; at 300 nM): stimulated DNA synthesis | effect on DNA synthesis [4]: stimulated DNA synthesis | stimulation of DNA synthesis ([5]; at 300 nM): 50% | effect on DNA synthesis [6]: had no effect

O=C(O)CCCc1oc2cc(O)cc(O)c2c(=O)c1-c1ccc(O)cc1 [Compound 5, 2-(3-Carboxypropyl)-5,7,4′-trihydroxyisoflavone]
effect on DNA synthesis / growth [1]: significantly stimulated [^3H]-thymidine incorporation into DNA | effect on DNA synthesis ([3]; at 300 nM): stimulated DNA synthesis

O=C(O)COc1ccc2c(=O)c(-c3ccc(O)cc3)coc2c1 [Compound 6, 7-(O)-Carboxymethyl daidzein, reference compound]
effect on DNA synthesis ([3]; at 300 nM): stimulated DNA synthesis | effect on DNA synthesis [4]: stimulated DNA synthesis | effect on DNA synthesis [6]: stimulated DNA synthesis

COc1ccc(-c2c(CCCC(=O)NCCCCCCNC(=O)OC(C)(C)C)oc3cc(O)cc(O)c3c2=O)cc1 [Compound 7, 2-[3-carboxy-(6-tert-butoxycarbonylamino)-hexylamino-propyl]-7,5-dihydroxy-4′-methoxyisoflavone]
effect on DNA synthesis / growth [1]: inhibited significantly DNA synthesis | DNA synthesis, ratio experimental/control (E/C) ([1]; compound at 3 μM): 0.22 ± 0.15 | DNA synthesis, ratio experimental/control (E/C) (MLS ovarian cancer cells; compound at 3 μM): 0.05 ± 0.23 | inhibition at 3 µM ([7]; Homo sapiens, at 3 μM, read-out: inhibition of DNA synthesis / growth): 35% | DNA synthesis, ratio experimental/control (E/C) ([7]; compound at 3 μM): 0.64 ± 0.16 | inhibition at 3 µM ([2]; at 3 μM): 40 to 45% | DNA synthesis, ratio experimental/control (E/C) ([2]; compound at 3 μM): 0.55 ± 0.03 | inhibition at 0.03 µM ([3]; Homo sapiens, at 30 nM): 10% | inhibition at 0.3 µM ([3]; Homo sapiens, at 300 nM): 50% | DNA synthesis, ratio experimental/control (E/C) ([3]; compound at 0.3 μM): 0.41 ± 0.27 | inhibition at 3.3 µM ([4]; Homo sapiens, at 3.3 μM): 26% | DNA synthesis, ratio experimental/control (E/C) ([4]; compound at 3 μM): 0.74 ± 0.05 | inhibition at 0.3 µM ([5]; Homo sapiens, at 300 nM, read-out: inhibition of cell growth): 40%

C[C@]12CC[C@@H]3c4ccc(O)cc4CC[C@H]3[C@@H]1CC[C@@H]2O [Compound E2, estradiol 17β, reference compound]
DNA synthesis, ratio experimental/control (E/C) ([1]; E2 30 nM alone (Table 3)): 2.06 ± 0.09 | DNA synthesis, ratio experimental/control (E/C) ([1]; E2 0.3 μM alone): 1.87 ± 0.18 | DNA synthesis, ratio experimental/control (E/C) ([1]; E2 at 30 nM (Table 2)): 1.64 ± 0.13 | activity at 0.03 µM ([1]; Homo sapiens, estradiol 30 nM, read-out: [3H]-thymidine incorporation (% of control)): 206% | DNA synthesis, ratio experimental/control (E/C) (MLS ovarian cancer cells; E2 30 nM alone (Table 3)): 2.35 ± 0.06 | DNA synthesis, ratio experimental/control (E/C) (MLS ovarian cancer cells; E2 0.3 μM alone): 1.70 ± 0.15 | DNA synthesis, ratio experimental/control (E/C) (MLS ovarian cancer cells; E2 at 30 nM (Table 2)): 1.39 ± 0.03 | activity at 0.03 µM (MLS ovarian cancer cells; Homo sapiens, estradiol 30 nM, read-out: DNA synthesis (% of control)): 235% | activity at 0.3 µM (MLS ovarian cancer cells; Homo sapiens, estradiol 0.3 μM, read-out: DNA synthesis (% of control)): 187% | DNA synthesis, ratio experimental/control (E/C) ([7]; E2 at 30 nM): 1.42 ± 0.10 | DNA synthesis, ratio experimental/control (E/C) ([2]; E2 at 30 nM): 2.10 + .10 | DNA synthesis, ratio experimental/control (E/C) ([3]; E2 at 30 nM): 2.10 ± 0.10 | DNA synthesis, ratio experimental/control (E/C) ([4]; E2 at 30 nM): 0.55 ± 0.12

C[C@]12CC[C@@H]3c4ccc(O)cc4C[C@@H](CCCCCCCCC[S+]([O-])CCCC(F)(F)C(F)(F)F)[C@H]3[C@@H]1CC[C@@H]2O (stereo partly shown) [ICI 182780, reference compound]
DNA synthesis, ratio experimental/control (E/C) ([1]; ICI 182780 1.1 μM alone): 0.63 ± 0.08 | DNA synthesis, ratio experimental/control (E/C) ([1]; ICI 182780 (1.1 μM) + E2 30 nM): 0.63 ± 0.08 | DNA synthesis, ratio experimental/control (E/C) [1, 8]: 0.92 ± 0.18 | DNA synthesis (% of control) [1, 9]: 63% | DNA synthesis (% of control) ([1]; estradiol 300 nM + 1.1 μM ICI 182780): 92% | DNA synthesis, ratio experimental/control (E/C) (MLS ovarian cancer cells; ICI 182780 1.1 μM alone): 0.52 ± 0.12 | DNA synthesis, ratio experimental/control (E/C) (MLS ovarian cancer cells; ICI 182780 (1.1 μM) + E2 30 nM): 0.53 ± 0.11 | DNA synthesis, ratio experimental/control (E/C) (MLS ovarian cancer cells; [8]): 0.95 ± 0.08 | DNA synthesis (% of control) (MLS ovarian cancer cells; [9]): 53% | DNA synthesis (% of control) (MLS ovarian cancer cells; estradiol 0.3 μM + 1.1 μM ICI 182780): 95%

COC(=O)C[C@H](NC(=O)[C@H](C)NC(=O)[C@@H](NC(=O)OCc1ccccc1)C(C)C)C(=O)CF [Z-VADFK, Z-VAD-FMK Me ester, reference compound] (Cbz-Val-Ala-Asp(OMe)-CH2F)
DNA synthesis, ratio experimental/control (E/C) ([1]; Z-VADFK 25 μM alone): 1.11 ± 0.08 | effect on DNA synthesis [1, 10]: had no effect on DNA synthesis | DNA synthesis, ratio experimental/control (E/C) (MLS ovarian cancer cells; Z-VADFK 25 μM alone): 1.06 ± 0.1 | effect on DNA synthesis (MLS ovarian cancer cells; [10]): had no effect on DNA synthesis

N.N.O=C([O-])C1(C(=O)[O-])CCC1.[Pt+2] [carboplatin, reference compound]
inhibition of DNA synthesis / growth ([7]; at 3 μM): 57%

COc1cccc2c1C(=O)c1c(O)c3c(c(O)c1C2=O)C[C@@](O)(C(C)=O)C[C@@H]3O[C@H]1C[C@H](N)[C@H](O)[C@H](C)O1 [daunomycin, reference compound]
inhibition at 3 µM ([2]; at 3 μM): 75% | reduction in mean body weight (MLS ovarian xenografts): 15% | deaths caused (MLS ovarian xenografts; 8-10 mice/group): 2 mice

— US8338624B2, “Isoflavone derivatives and uses thereof” (Yeda Research and Development Co., Ltd., priority 2007, dated 2012)
